# Source: US9890153B2, “Substituted 1H-pyrrolo [2, 3-b] pyridine and 1H-pyrazolo [3, 4-b] pyridine derivatives as salt inducible kinase 2 (SIK2) inhibitors” (Arrien Pharmaceuticals LLC, priority 2012, dated 2018)
# Biological target: T1, SIK1 (SEQ ID NO: 10) (Homo sapiens, UniProt P57059)
# T1 construct: Reaction Biology Corporation (assay service, HotSpot panel)
# Assay: Protein kinase assay, SIK1
# Assay type: biochemical
# Conditions: read-out: SIK1 (SEQ ID NO: 10) kinase inhibition result
# Experimental: (§1) Briefly, specific kinase/substrate pairs along with required cofactors were prepared in reaction buffer; 20 mM Hepes (pH 7.5), 10 mMmgCl2, 1 mM EGTA, 0.02% Brij35, 0.02 mg/ml BSA, 0.1 mM Na3VO4, 2 mM DTT, 1% DMSO. Compounds were delivered into the reaction, followed ˜20 min later by addition of a mixture of ATP (Sigma) and 33P ATP (PerkinElmer) to a final concentration of 10 μM. […] IC50 values and curve fits were obtained using Prism (GraphPad Software). Kinome tree representations were prepared using Kinome Mapper (http://www.reactionbiology.com/apps/kinome/mapper/LaunchKinome.htm).
# T1 sequence (P57059 whole entry): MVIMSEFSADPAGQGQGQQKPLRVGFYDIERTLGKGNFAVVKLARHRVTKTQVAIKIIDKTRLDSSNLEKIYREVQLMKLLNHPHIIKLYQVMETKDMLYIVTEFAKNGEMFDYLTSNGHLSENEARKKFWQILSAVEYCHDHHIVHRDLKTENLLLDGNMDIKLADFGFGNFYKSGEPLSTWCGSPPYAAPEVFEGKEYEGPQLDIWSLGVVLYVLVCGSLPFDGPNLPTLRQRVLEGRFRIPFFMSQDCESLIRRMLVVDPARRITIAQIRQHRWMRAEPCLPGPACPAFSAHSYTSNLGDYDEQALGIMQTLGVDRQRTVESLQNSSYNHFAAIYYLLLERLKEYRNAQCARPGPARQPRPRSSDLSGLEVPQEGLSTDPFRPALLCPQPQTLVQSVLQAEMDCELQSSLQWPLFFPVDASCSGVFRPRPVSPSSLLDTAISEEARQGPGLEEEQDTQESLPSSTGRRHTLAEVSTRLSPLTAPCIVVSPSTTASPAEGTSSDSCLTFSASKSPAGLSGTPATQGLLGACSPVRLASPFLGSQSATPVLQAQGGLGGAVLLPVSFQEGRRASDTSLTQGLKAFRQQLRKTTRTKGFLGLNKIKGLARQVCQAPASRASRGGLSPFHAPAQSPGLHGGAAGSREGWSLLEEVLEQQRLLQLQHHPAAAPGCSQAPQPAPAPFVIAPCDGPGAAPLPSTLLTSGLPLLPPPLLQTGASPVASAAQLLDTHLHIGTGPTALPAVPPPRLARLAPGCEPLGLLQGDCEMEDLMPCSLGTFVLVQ
row,IC50 [nM],SMILES
1,> 100,"COc1c(F)cccc1-c1c[nH]c2nccc(-c3ccsc3)c12 [Example 120, 3-(3-fluoro-2-methoxyphenyl)-4-(thiophen-3-yl)-1H-pyrrolo[2,3-b]pyridine]"
2,> 1000,"COc1c(F)cccc1-c1c[nH]c2ncc(-c3ccsc3)cc12 [Example 125, 3-(3-fluoro-2-methoxyphenyl)-5-(thiophen-3-yl)-1H-pyrrolo[2,3-b]pyridine]"
3,> 100,"c1cnc(N2CCOCC2)c(-c2c[nH]c3nccc(-c4ccsc4)c23)c1 [Example 37, 4-(3-(4-(thiophen-3-yl)-1H-pyrrolo[2,3-b]pyridin-3-yl)pyridin-2-yl)morpholine]"
4,> 1000,"COc1ccc(-c2n[nH]c3nccc(-c4ccsc4)c23)c(OC)c1 [Example 87, 3-(2,4-dimethoxyphenyl)-4-(thiophen-3-yl)-1H-pyrazolo[3,4-b]pyridine]"
5,> 1000,"COc1c(F)cc(F)cc1-c1c[nH]c2ncc(-c3cnn(C4CCN(S(C)(=O)=O)CC4)c3)cc12 [Example 214, 3-(3,5-difluoro-2-methoxyphenyl)-5-(1-(1-(methylsulfonyl)piperidin-4-yl)-1H-pyrazol-4-yl)-1H-pyrrolo[2,3-b]pyridine]"
6,> 100,"COc1ncccc1-c1c[nH]c2nccc(-c3ccsc3)c12 [Example 36, 3-(2-methoxypyridin-3-yl)-4-(thiophen-3-yl)-1H-pyrrolo[2,3-b]pyridine]"

# Biological target: T2, SIK3 (QSK) (SEQ ID NO: 24) (Homo sapiens, UniProt Q9Y2K2)
# T2 construct: Reaction Biology Corporation (assay service, HotSpot panel)
# Assay: Protein kinase assay, SIK3
# Assay type: biochemical
# Conditions: read-out: SIK3 (QSK) (SEQ ID NO: 24) kinase inhibition result
# Experimental: as §1
# T2 sequence (Q9Y2K2 whole entry): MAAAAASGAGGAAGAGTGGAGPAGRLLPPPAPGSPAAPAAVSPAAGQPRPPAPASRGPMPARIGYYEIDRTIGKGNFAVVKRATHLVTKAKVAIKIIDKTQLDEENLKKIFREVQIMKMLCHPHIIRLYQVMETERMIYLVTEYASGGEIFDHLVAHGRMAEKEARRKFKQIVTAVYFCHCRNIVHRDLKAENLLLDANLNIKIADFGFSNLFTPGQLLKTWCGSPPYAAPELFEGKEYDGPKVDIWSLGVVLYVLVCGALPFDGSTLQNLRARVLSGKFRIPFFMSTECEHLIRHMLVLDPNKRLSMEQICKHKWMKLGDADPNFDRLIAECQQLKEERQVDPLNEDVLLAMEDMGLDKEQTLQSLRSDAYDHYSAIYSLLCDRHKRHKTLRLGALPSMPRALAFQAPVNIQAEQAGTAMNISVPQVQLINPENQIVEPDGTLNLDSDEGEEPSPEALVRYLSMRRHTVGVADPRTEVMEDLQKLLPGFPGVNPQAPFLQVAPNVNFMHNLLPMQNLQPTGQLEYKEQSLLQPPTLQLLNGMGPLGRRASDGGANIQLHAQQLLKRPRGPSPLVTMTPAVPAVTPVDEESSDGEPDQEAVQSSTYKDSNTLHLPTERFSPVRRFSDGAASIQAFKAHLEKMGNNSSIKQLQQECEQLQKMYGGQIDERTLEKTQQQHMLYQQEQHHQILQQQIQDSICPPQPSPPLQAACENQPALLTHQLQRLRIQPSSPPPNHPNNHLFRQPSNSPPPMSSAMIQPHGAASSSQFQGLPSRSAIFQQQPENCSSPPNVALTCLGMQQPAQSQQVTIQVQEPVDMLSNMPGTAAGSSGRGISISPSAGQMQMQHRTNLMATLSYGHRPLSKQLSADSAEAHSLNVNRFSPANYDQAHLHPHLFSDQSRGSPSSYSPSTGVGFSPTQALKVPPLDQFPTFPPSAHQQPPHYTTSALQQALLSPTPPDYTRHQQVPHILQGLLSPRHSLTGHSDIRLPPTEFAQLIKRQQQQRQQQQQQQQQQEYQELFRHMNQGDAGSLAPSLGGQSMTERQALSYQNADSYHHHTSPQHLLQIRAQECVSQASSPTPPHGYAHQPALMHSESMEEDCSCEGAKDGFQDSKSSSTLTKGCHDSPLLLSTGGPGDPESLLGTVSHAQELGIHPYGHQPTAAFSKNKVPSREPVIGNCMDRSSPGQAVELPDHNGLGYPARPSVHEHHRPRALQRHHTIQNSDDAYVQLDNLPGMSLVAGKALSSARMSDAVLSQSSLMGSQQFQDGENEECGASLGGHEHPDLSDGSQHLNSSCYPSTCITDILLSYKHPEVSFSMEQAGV
row,IC50 [nM],SMILES
1,> 100,"COc1c(F)cccc1-c1c[nH]c2nccc(-c3ccsc3)c12 [Example 120, 3-(3-fluoro-2-methoxyphenyl)-4-(thiophen-3-yl)-1H-pyrrolo[2,3-b]pyridine]"

# Biological target: SIK2 (QIK) (SEQ ID NO: 11) (Homo sapiens, UniProt Q9H0K1)
# Assay: SIK2 kinase assay (radiometric, 10 μM ATP)
# Assay type: biochemical
# Conditions: compounds purchased from vendor library, read-out: SIK2 IC50
# Experimental: Procedure: Enzyme was incubated with substrate peptide in reaction buffer in the presence and absence of test compounds or Staurosporine. All additions were done on ice, followed by the addition of ATP mix. Wells were uniformly mixed using an Eppendorff plate shaker and incubated at 30° C. for 20 min, and stopped by the addition of 5 μL of 3% phosphoric acid. Volume was increased to 100 μL by adding 0.8% phosphoric acid which was then transferred to PC filter mats (Millipore), pre-equilibrated with 70% ethanol and water. Plates were washed thrice with 100 μL 0.8% phosphoric acid and dried for an hour at 60° C.
# Chain of SIK2 (QIK) (SEQ ID NO: 11) (Q9H0K1 whole entry): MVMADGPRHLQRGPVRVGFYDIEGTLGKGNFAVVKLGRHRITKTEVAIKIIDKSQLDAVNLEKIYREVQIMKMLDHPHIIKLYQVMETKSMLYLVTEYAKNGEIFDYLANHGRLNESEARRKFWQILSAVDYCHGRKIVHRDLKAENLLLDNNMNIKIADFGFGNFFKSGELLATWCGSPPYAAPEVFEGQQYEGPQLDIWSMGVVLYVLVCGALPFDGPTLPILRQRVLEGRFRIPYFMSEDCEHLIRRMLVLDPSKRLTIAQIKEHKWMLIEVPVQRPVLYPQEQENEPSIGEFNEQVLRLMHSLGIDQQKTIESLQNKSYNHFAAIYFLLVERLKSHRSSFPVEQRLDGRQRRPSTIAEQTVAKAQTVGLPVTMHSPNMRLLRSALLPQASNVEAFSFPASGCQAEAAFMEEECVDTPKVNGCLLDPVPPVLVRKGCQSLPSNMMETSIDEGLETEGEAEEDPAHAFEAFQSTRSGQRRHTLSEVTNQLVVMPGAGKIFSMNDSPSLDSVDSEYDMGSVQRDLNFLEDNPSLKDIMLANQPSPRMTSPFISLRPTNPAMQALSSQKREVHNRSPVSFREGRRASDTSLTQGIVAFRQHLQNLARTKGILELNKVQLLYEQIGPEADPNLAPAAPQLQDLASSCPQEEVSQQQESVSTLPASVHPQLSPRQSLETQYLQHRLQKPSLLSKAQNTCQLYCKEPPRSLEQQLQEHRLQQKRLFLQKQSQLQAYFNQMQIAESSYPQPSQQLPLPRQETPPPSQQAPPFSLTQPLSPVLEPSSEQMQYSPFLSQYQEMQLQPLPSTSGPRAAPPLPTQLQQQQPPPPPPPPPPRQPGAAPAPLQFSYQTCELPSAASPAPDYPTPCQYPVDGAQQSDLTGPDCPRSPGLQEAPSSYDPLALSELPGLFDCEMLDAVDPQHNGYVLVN
row,IC50 [nM],SMILES
1,> 1000,"COc1cc(-c2n[nH]c3nccc(-c4cccc(N(C)C)c4)c23)cc(OC)c1OC [compound 9, N,N-dimethyl-3-(3-(3,4,5-trimethoxyphenyl)-1H-pyrazolo[3,4-b]pyridin-4-yl)aniline]"
2,> 1000,"OCCNC(O)c1cccc(-c2n[nH]c3nccc(-c4cccc(C(F)(F)F)c4)c23)c1 (stereo not drawn) [compound 7, 2-((hydroxy(3-(4-(3-(trifluoromethyl)phenyl)-1H-pyrazolo[3,4-b]pyridin-3-yl)phenyl)methyl)amino)ethanol]"
3,> 1000,"COc1cc(-c2n[nH]c3nccc(-c4cccc(C(N)=O)c4)c23)cc(OC)c1OC [compound 11, 3-(3-(3,4,5-trimethoxyphenyl)-1H-pyrazolo[3,4-b]pyridin-4-yl)benzamide]"
4,< 100,"COc1ccccc1-c1n[nH]c2nccc(-c3ccsc3)c12 [compound 5, 3-(2-methoxyphenyl)-4-(thiophen-3-yl)-1H-pyrazolo[3,4-b]pyridine]"
5,> 1000,"FC(F)(F)c1cccc(-c2ccnc3[nH]nc(-c4ccc5c(c4)OCO5)c23)c1 [compound 2, 3-(benzo[d][1,3]dioxol-5-yl)-4-(3-(trifluoromethyl)phenyl)-1H-pyrazolo[3,4-b]pyridine]"
6,> 1000,"CNC(=O)c1cccc(-c2ccnc3[nH]nc(-c4cccc(C(F)(F)F)c4)c23)c1 [compound 12, N-methyl-3-(3-(3-(trifluoromethyl)phenyl)-1H-pyrazolo[3,4-b]pyridin-4-yl)benzamide]"
7,> 1000,"COc1cc(-c2n[nH]c3nccc(-c4cccc(C(=O)NCCN(C)C)c4)c23)cc(OC)c1OC [compound 4, N-(2-(dimethylamino)ethyl)-3-(3-(3,4,5-trimethoxyphenyl)-1H-pyrazolo[3,4-b]pyridin-4-yl)benzamide]"
8,> 1000,"COc1cccc(-c2ccnc3[nH]nc(-c4cccc(C(F)(F)F)c4)c23)c1 [compound 8, 4-(3-methoxyphenyl)-3-(3-(trifluoromethyl)phenyl)-1H-pyrazolo[3,4-b]pyridine]"
9,> 100,"COc1cc(-c2n[nH]c3nccc(-c4ccc(C(C)C)cc4)c23)cc(OC)c1OC [compound 6, 4-(4-isopropylphenyl)-3-(3,4,5-trimethoxyphenyl)-1H-pyrazolo[3,4-b]pyridine]"
10,> 1000,"COc1cc(-c2ccnc3[nH]nc(-c4cccc(NS(C)(=O)=O)c4)c23)cc(OC)c1OC [compound 3, N-(3-(4-(3,4,5-trimethoxyphenyl)-1H-pyrazolo[3,4-b]pyridin-3-yl)phenyl)methanesulfonamide]"
11,< 100,"COc1ccccc1-c1n[nH]c2nccc(-c3ccoc3)c12 [compound 10, 4-(furan-3-yl)-3-(2-methoxyphenyl)-1H-pyrazolo[3,4-b]pyridine]"
12,> 100,"COc1ccc(-c2ccnc3[nH]nc(-c4cccnc4)c23)cc1OC [compound 1, 4-(3,4-dimethoxyphenyl)-3-(pyridin-3-yl)-1H-pyrazolo[3,4-b]pyridine]"

# Same assay, conditions: read-out: SIK2 (QIK) (SEQ ID NO: 11) kinase inhibition result
row,SMILES,IC50 [nM]
1,"CN(C)S(=O)(=O)c1ccccc1-c1c[nH]c2nccc(-c3ccsc3)c12 [Example 94, N,N-dimethyl-2-(4-(thiophen-3-yl)-1H-pyrrolo[2,3-b]pyridin-3-yl)benzenesulfonamide]",> 1000
2,"COc1ccc(-c2n[nH]c3nccc(-c4ccsc4)c23)cc1 [Example 7, 3-(4-methoxyphenyl)-4-(thiophen-3-yl)-1H-pyrazolo[3,4-b]pyridine]",> 100
3,"Clc1ccnc2[nH]cc(-c3ccsc3)c12 [Example 29, 4-chloro-3-(thiophen-3-yl)-1H-pyrrolo[2,3-b]pyridine]",> 100
4,"c1cnc(N2CCOCC2)c(-c2c[nH]c3nccc(-c4ccsc4)c23)c1 [Example 37, 4-(3-(4-(thiophen-3-yl)-1H-pyrrolo[2,3-b]pyridin-3-yl)pyridin-2-yl)morpholine]",> 100
5,"c1cc(-c2ccsc2)c2cc[nH]c2n1 [Example 20, 4-(thiophen-3-yl)-1H-pyrrolo[2,3-b]pyridine]",> 1000

# Continued, values first:
row,IC50 [nM],SMILES
1,< 100,"COc1c(F)cccc1-c1c[nH]c2nccc(-c3ccsc3)c12 [Example 120, 3-(3-fluoro-2-methoxyphenyl)-4-(thiophen-3-yl)-1H-pyrrolo[2,3-b]pyridine]"
2,> 100,"Cc1ncc(-c2cnc3[nH]cc(-c4cccc(F)c4Cl)c3c2)s1 [Example 137, 5-(3-(2-chloro-3-fluorophenyl)-1H-pyrrolo[2,3-b]pyridin-5-yl)-2-methylthiazole]"
3,< 100,"COc1c(F)cccc1-c1c[nH]c2ncc(-c3ccsc3)cc12 [Example 125, 3-(3-fluoro-2-methoxyphenyl)-5-(thiophen-3-yl)-1H-pyrrolo[2,3-b]pyridine]"
4,> 100,"COc1cc(F)ccc1-c1c[nH]c2nccc(-c3ccsc3)c12 [Example 28, 3-(4-fluoro-2-methoxyphenyl)-4-(thiophen-3-yl)-1H-pyrrolo[2,3-b]pyridine]"
5,> 100,"CCOc1ccccc1-c1c[nH]c2nccc(-c3ccsc3)c12 [Example 26, 3-(2-ethoxyphenyl)-4-(thiophen-3-yl)-1H-pyrrolo[2,3-b]pyridine]"
6,> 1000,"Clc1ccccc1-c1c[nH]c2ncc(-c3ccsc3)cc12 [Example 139, 3-(2-chlorophenyl)-5-(thiophen-3-yl)-1H-pyrrolo[2,3-b]pyridine]"
7,> 100,"COc1ccc(-c2n[nH]c3nccc(-c4ccsc4)c23)c(OC)c1 [Example 87, 3-(2,4-dimethoxyphenyl)-4-(thiophen-3-yl)-1H-pyrazolo[3,4-b]pyridine]"
8,> 100,"Clc1cccc(-c2c[nH]c3nccc(-c4ccsc4)c23)c1 [Example 47, 3-(3-chlorophenyl)-4-(thiophen-3-yl)-1H-pyrrolo[2,3-b]pyridine]"
9,> 1000,"FC(F)(F)Oc1ccccc1-c1c[nH]c2nccc(-c3ccsc3)c12 [Example 99, 4-(thiophen-3-yl)-3-(2-(trifluoromethoxy)phenyl)-1H-pyrrolo[2,3-b]pyridine]"
10,> 1000,"COc1ccccc1-c1ccnc2[nH]cc(-c3ccsc3)c12 [Example 30, 4-(2-methoxyphenyl)-3-(thiophen-3-yl)-1H-pyrrolo[2,3-b]pyridine]"
11,> 1000,"Fc1ccc(-c2c[nH]c3ncc(-c4ccsc4)cc23)cc1Cl [Example 140, 3-(3-chloro-4-fluorophenyl)-5-(thiophen-3-yl)-1H-pyrrolo[2,3-b]pyridine]"
12,> 1000,"Fc1cc(OC(F)(F)F)ccc1-c1c[nH]c2nccc(-c3ccsc3)c12 [Example 100, 3-(2-fluoro-4-(trifluoromethoxy)phenyl)-4-(thiophen-3-yl)-1H-pyrrolo[2,3-b]pyridine]"
13,> 100,"COc1ccc(-c2c[nH]c3nccc(-c4ccsc4)c23)c(OC)n1 [Example 101, 3-(2,6-dimethoxypyridin-3-yl)-4-(thiophen-3-yl)-1H-pyrrolo[2,3-b]pyridine]"
14,> 1000,"COc1ccc(-c2c[nH]c3nccc(-c4ccsc4)c23)cc1 [Example 25, 3-(4-methoxyphenyl)-4-(thiophen-3-yl)-1H-pyrrolo[2,3-b]pyridine]"
15,> 100,"COc1ncccc1-c1c[nH]c2nccc(-c3ccsc3)c12 [Example 36, 3-(2-methoxypyridin-3-yl)-4-(thiophen-3-yl)-1H-pyrrolo[2,3-b]pyridine]"
16,> 100,"COc1cc(Cl)ccc1-c1c[nH]c2nccc(-c3ccsc3)c12 [Example 24, 3-(4-chloro-2-methoxyphenyl)-4-(thiophen-3-yl)-1H-pyrrolo[2,3-b]pyridine]"
17,> 100,"N#Cc1ccc(-c2cnc3[nH]cc(-c4cccc(F)c4Cl)c3c2)s1 [Example 132, 5-(3-(2-chloro-3-fluorophenyl)-1H-pyrrolo[2,3-b]pyridin-5-yl)thiophene-2-carbonitrile]"
18,> 1000,"COc1c(F)cc(F)cc1-c1c[nH]c2ncc(-c3ccsc3)cc12 [Example 126, 3-(3,5-difluoro-2-methoxyphenyl)-5-(thiophen-3-yl)-1H-pyrrolo[2,3-b]pyridine]"
19,> 1000,"Fc1ccccc1-c1c[nH]c2nccc(-c3ccsc3)c12 [Example 22, 3-(2-fluorophenyl)-4-(thiophen-3-yl)-1H-pyrrolo[2,3-b]pyridine]"
20,> 100,"COc1ccccc1-c1c[nH]c2ncc(-c3ccsc3)cc12 [Example 113, 3-(2-methoxyphenyl)-5-(thiophen-3-yl)-1H-pyrrolo[2,3-b]pyridine]"
21,> 100,"Fc1cccc(-c2c[nH]c3nccc(-c4ccsc4)c23)c1Cl [Example 23, 3-(2-chloro-3-fluorophenyl)-4-(thiophen-3-yl)-1H-pyrrolo[2,3-b]pyridine]"
